#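 1) Cells in 96-well plates. 2) Compound, 48 h, 5 concentrations. 3) Linear interpolation between surrounding doses. 4) Unreached endpoint = highest concentration. TGI marks complete inhibition of growth.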
# What was measured:
# Experiment in all cases: DTP human tumour cell line panel, 48 h
# [1] = test system: COLO 205 colon
# [2] = test system: TK-10 renal
# [3] = test system: EKVX NSCLC
# [4] = test system: SNB-78 CNS
# [5] = test system: SN12C renal
# [6] = test system: SK-MEL-28 melanoma
# [7] = test system: IGROV1 ovarian
# [8] = test system: HT29 colon
# [9] = test system: HOP-62 NSCLC
# [10] = test system: SK-MEL-2 melanoma
# [11] = test system: HCT-15 colon
# [12] = test system: HCC-2998 colon
# [13] = test system: OVCAR-3 ovarian
# [14] = test system: RXF 393 renal
# [15] = test system: SR leukemia
# [16] = test system: MALME-3M melanoma
# [17] = test system: HL-60(TB) leukemia
# [18] = test system: 786-0 renal
# [19] = test system: ACHN renal
# [20] = test system: SW-620 colon
# [21] = test system: NCI-H460 lung
# [22] = test system: UO-31 renal
# [23] = test system: HOP-92 NSCLC
# [24] = test system: OVCAR-8 ovarian
# [25] = test system: SK-OV-3 ovarian
# [26] = test system: KM20L2 colon
# [27] = test system: UACC-62 melanoma
# [28] = test system: OVCAR-4 ovarian
# [29] = test system: U251 CNS
# [30] = test system: MOLT-4 leukemia
# [31] = test system: LXFL 529 NSCLC
# [32] = test system: SK-MEL-5 melanoma
# [33] = test system: LOX IMVI melanoma
# [34] = test system: NCI-H522 lung
# [35] = test system: CAKI-1 renal
# [36] = test system: DMS 273 small cell lung
# [37] = test system: HOP-18 NSCLC
# [38] = test system: UACC-257 melanoma
# [39] = test system: HCT-116 colon
# [40] = test system: M14 melanoma
# [41] = test system: K-562 leukemia
# [42] = test system: NCI-H23 lung
# [43] = test system: SF-295 CNS
# [44] = test system: A498 renal
# [45] = test system: SF-268 CNS
# [46] = test system: SF-539 CNS
# [47] = test system: SNB-19 CNS
# [48] = test system: OVCAR-5 ovarian
# [49] = test system: KM12 colon
# [50] = test system: SNB-75 CNS
# [51] = test system: M19-MEL melanoma
# [52] = test system: CCRF-CEM leukemia
# [53] = test system: DMS 114 small cell lung
# [54] = test system: DLD-1 colon
# [55] = test system: NCI-H226 lung
# [56] = test system: A549 NSCLC
structure (smiles),measurement,setting,value
Cc1nc(Nc2ccc(Cl)cc2)sc1C(=O)NNC(=O)C(=O)NN,TGI,[1],35.8 µM
same,TGI,[2],91.7 µM
same,TGI,[3],30.6 µM
same,TGI,[4],64 µM
same,TGI,[5],30.5 µM
same,TGI,[6],47.3 µM
same,TGI,[7],33.7 µM
same,TGI,[8],31.2 µM
same,TGI,[9],35.9 µM
same,TGI,[10],32.6 µM
same,TGI,[11],31.6 µM
same,TGI,[12],35.5 µM
same,TGI,[13],38.1 µM
same,TGI,[14],43.4 µM
same,TGI,[15],54.8 µM
same,TGI,[16],38.8 µM
same,TGI,[17],41 µM
same,TGI,[18],32 µM
same,TGI,[19],49.4 µM
same,TGI,[20],32.6 µM
same,TGI,[21],34.7 µM
same,TGI,[22],31.5 µM
same,TGI,[23],36.4 µM
same,TGI,[24],> 100 µM
same,TGI,[25],40.5 µM
same,TGI,[26],30 µM
same,TGI,[27],28.6 µM
same,TGI,[28],34.3 µM
same,TGI,[29],33.2 µM
same,TGI,[30],42.5 µM
same,TGI,[31],33.6 µM
same,TGI,[32],32.7 µM
same,TGI,[33],32.3 µM
same,TGI,[34],32 µM
same,TGI,[35],49.3 µM
same,TGI,[36],33.9 µM
same,TGI,[37],37.1 µM
same,TGI,[38],52.5 µM
same,TGI,[39],33.9 µM
same,TGI,[40],34 µM
same,TGI,[41],51.4 µM
same,TGI,[42],31.8 µM
same,TGI,[43],34 µM
same,TGI,[44],29.5 µM
same,TGI,[45],66.5 µM
same,TGI,[46],41 µM
same,TGI,[47],46.3 µM
same,TGI,[48],34.5 µM
same,TGI,[49],36 µM
same,TGI,[50],48.6 µM
same,TGI,[51],35.6 µM
same,TGI,[52],52.8 µM
same,TGI,[53],40.7 µM
same,TGI,[54],32.9 µM
same,TGI,[55],36.6 µM
same,TGI,[56],37.9 µM
